Experimental data: BindingDB's records for doi:10.1016/j.bmcl.2009.05.120 (Royal College of Surgeons In Ireland, 2009)

Experiment: Inhibition of PGHS-1 in human platelet rich plasma assessed as inhibition of arachidonic acid-induced platelet aggregation in human platelet rich plasma treated 5 min before arachidonic acid challenge by turbidimetry

COC(=O)CCCCc1cccc(C(=O)OC)c1OC(C)=O [methyl 2-acetoxy-3-(5-methoxy-5-oxopentyl)benzoate]
IC50: 720 µM
